# Data reported in patent US20240165243A1, “EGFR DEGRADERS AND METHODS OF USE” (BeiGene Switzerland GmbH, priority 2021, published 2024).
# Test system: EGFR (Del19/T790M/C797S)
# Assay: Cell degradation HTRF assay, H1975-clone #28 cells
# Assay type: cell-based
# Conditions: H1975-clone #28 (Del19/T790M/C797S) cells, 16 h treatment; for DC50: HTRF, read-out: H1975-clone#28 DTC DC50; for H1975-clone#28 DTC Dmax (%): maximum percentage of degradation
# Method in brief: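 H1975 clones #25 and #28 were treated 16 h at 37° C, 5% CO2 with 8 doses (top 10 uM, 5-fold dilution) in 0.2% DMSO medium. EGFR in lysates read by HTRF (665/620 nm); degradation % relative to DMSO high control; DC50 from 4-parameter fit, Dmax = maximal degradation.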
DC50 [nM],Structure (SMILES),H1975-clone#28 DTC Dmax (%)
4.6,"CCOc1cc(N2CCC(N3CCN(CCc4cc(F)c(C5CCC(=O)NC5=O)c(F)c4)CC3)CC2)c(C)cc1Nc1ncc(Br)c(Nc2cnc3ccccc3c2P(C)(C)=O)n1 (centres unmarked) [Example 183, 3-(4-(2-(4-(1-(4-((5-bromo-4-((4-(dimethylphosphoryl)quinolin-3-yl)amino)pyrimidin-2-yl)amino)-5-ethoxy-2-methylphenyl)piperidin-4-yl)piperazin-1-yl)ethyl)-2,6-difluorophenyl)piperidine-2,6-dione]",73
1.5,"CCc1cc(Nc2ncc(Br)c(Nc3cnc4ccccc4c3P(C)(C)=O)n2)c(OC)cc1N1CCC(N2CCN([C@H]3C[C@H](c4cc(F)c(C5CCC(=O)NC5=O)c(F)c4)C3)CC2)CC1 (some centres unmarked) [Example 184, 3-(4-((1r,3r)-3-(4-(1-(4-((5-bromo-4-((4-(dimethylphosphoryl)quinolin-3-yl)amino)pyrimidin-2-yl)amino)-2-ethyl-5-methoxyphenyl)piperidin-4-yl)piperazin-1-yl)cyclobutyl)-2,6-difluorophenyl)piperidine-2,6-dione]",81
1.2,"CCc1cc(Nc2ncc(Br)c(Nc3cnc4ccccc4c3P(C)(C)=O)n2)c(OC)cc1N1CCC(N2CCN(C(=O)C3CCN(c4cc(F)c(C5CCC(=O)NC5=O)c(F)c4)CC3)CC2)CC1 (centres unmarked) [Example 185, 3-(4-(4-(4-(1-(4-((5-bromo-4-((4-(dimethylphosphoryl)quinolin-3-yl)amino)pyrimidin-2-yl)amino)-2-ethyl-5-methoxyphenyl)piperidin-4-yl)piperazine-1-carbonyl)piperidin-1-yl)-2,6-difluorophenyl)piperidine-2,6-dione]",71
8,"CCc1cc(Nc2ncc(Br)c(Nc3cnc4ccccc4c3P(C)(C)=O)n2)c(OCC(F)(F)F)cc1N1CCC(N2CCN(CCC3CCN(c4cc(F)c(C5CCC(=O)NC5=O)c(F)c4)CC3)CC2)CC1 (centres unmarked) [Example 186, 3-(4-(4-(2-(4-(1-(4-((5-bromo-4-((4-(dimethylphosphoryl)quinolin-3-yl)amino)pyrimidin-2-yl)amino)-2-ethyl-5-(2,2,2-trifluoroethoxy)phenyl)piperidin-4-yl)piperazin-1-yl)ethyl)piperidin-1-yl)-2,6-difluorophenyl)piperidine-2,6-dione]",72
3.3,"CCc1cc(Nc2ncc(Br)c(Nc3cnc4ccccc4c3P(C)(C)=O)n2)c(OCC(F)(F)F)cc1N1CCC(N2CCN(CCc3cc(F)c(C4CCC(=O)NC4=O)c(F)c3)CC2)CC1 (centres unmarked) [Example 187, 3-(4-(2-(4-(1-(4-((5-bromo-4-((4-(dimethylphosphoryl)quinolin-3-yl)amino)pyrimidin-2-yl)amino)-2-ethyl-5-(2,2,2-trifluoroethoxy)phenyl)piperidin-4-yl)piperazin-1-yl)ethyl)-2,6-difluorophenyl)piperidine-2,6-dione]",69
0.8,"CCc1cc(Nc2ncc(Br)c(Nc3cnc4ccccc4c3P(C)(C)=O)n2)c(OC)cc1N1CCC(N2CCN(CCc3cccc4c3oc(=O)n4C3CCC(=O)NC3=O)CC2)CC1 (centres unmarked) [Example 188, 3-(7-(2-(4-(1-(4-((5-bromo-4-((4-(dimethylphosphoryl)quinolin-3-yl)amino)pyrimidin-2-yl)amino)-2-ethyl-5-methoxyphenyl)piperidin-4-yl)piperazin-1-yl)ethyl)-2-oxobenzo[d]oxazol-3(2H)-yl)piperidine-2,6-dione]",84
2.4,"CCc1cc(Nc2ncc(Br)c(Nc3cnc4ccccc4c3P(C)(C)=O)n2)c(OC)cc1N1CCC(N2CCN(C(=O)CN(C)c3cc(F)c(C4CCC(=O)NC4=O)c(F)c3)CC2)CC1 (centres unmarked) [Example 189, 3-(4-((2-(4-(1-(4-((5-bromo-4-((4-(dimethylphosphoryl)quinolin-3-yl)amino)pyrimidin-2-yl)amino)-2-ethyl-5-methoxyphenyl)piperidin-4-yl)piperazin-1-yl)-2-oxoethyl)(methyl)amino)-2,6-difluorophenyl)piperidine-2,6-dione]",77
